Experimental findings from ChEMBL document CHEMBL1201862, “PubChem BioAssay data set” (2004) are described below.

For assay [1], the target named is T1, Replicative DNA helicase DnaB (Mycobacterium tuberculosis, UniProt P9WMR3).
T1 sequence (P9WMR3 whole entry): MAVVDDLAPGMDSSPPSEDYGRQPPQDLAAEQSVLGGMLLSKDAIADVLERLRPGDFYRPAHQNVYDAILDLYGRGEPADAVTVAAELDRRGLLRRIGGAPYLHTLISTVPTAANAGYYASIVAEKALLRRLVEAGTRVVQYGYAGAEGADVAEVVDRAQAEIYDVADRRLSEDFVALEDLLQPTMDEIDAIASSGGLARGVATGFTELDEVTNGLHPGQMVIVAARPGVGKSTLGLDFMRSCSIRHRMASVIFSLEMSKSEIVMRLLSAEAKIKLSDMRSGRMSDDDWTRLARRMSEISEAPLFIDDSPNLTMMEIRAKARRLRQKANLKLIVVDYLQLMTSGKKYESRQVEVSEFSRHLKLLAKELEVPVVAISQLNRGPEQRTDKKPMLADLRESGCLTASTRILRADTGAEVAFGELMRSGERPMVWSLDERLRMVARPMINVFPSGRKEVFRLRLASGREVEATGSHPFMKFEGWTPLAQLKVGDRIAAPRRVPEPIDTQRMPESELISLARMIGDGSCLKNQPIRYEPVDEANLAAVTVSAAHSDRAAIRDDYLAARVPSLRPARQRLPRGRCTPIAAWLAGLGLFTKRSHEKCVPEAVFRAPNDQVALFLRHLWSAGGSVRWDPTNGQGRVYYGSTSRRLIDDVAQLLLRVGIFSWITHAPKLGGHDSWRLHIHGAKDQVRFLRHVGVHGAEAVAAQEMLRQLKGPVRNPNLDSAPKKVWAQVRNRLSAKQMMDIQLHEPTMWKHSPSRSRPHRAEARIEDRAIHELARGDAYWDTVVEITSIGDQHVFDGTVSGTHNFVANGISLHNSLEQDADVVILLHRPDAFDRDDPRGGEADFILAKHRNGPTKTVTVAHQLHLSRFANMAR
Description: DnaB intein splicing inhibitors, dose response, biochemical, cell-free fluorescence (AID 449749). The assay is classed as functional.

In a further assay the test system is INS1. Put plainly: INS-1E survival protection against cytokine death – cell-based, luminescence, retest, dose response (AID 449756).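 Also: cell death triggered by IL-1 beta plus TNF-alpha plus IFN-gamma mixture; protective hits raise ATP signal compared with cytokine alone wells.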 The class given is functional. Conditions: Rattus norvegicus.
A further assay deals with T2, Caspase-3 (Homo sapiens, UniProt P42574).
T2 sequence (P42574 whole entry): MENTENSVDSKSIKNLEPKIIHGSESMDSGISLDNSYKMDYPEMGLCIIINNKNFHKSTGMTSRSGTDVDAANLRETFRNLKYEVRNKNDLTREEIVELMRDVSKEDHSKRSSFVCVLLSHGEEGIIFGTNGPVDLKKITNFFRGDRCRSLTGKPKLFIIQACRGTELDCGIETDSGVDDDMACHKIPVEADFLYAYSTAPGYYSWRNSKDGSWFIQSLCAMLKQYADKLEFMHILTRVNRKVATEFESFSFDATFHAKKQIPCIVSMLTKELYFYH
The class given is functional.

The target of assay [2] is T3, Sentrin-specific protease 7 (Homo sapiens, UniProt Q9BQF6).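 Also: Luminescence-based dose-response confirmation of ultra-high-throughput screening hits, measuring inhibition of SENP7.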
T3 sequence (Q9BQF6 whole entry): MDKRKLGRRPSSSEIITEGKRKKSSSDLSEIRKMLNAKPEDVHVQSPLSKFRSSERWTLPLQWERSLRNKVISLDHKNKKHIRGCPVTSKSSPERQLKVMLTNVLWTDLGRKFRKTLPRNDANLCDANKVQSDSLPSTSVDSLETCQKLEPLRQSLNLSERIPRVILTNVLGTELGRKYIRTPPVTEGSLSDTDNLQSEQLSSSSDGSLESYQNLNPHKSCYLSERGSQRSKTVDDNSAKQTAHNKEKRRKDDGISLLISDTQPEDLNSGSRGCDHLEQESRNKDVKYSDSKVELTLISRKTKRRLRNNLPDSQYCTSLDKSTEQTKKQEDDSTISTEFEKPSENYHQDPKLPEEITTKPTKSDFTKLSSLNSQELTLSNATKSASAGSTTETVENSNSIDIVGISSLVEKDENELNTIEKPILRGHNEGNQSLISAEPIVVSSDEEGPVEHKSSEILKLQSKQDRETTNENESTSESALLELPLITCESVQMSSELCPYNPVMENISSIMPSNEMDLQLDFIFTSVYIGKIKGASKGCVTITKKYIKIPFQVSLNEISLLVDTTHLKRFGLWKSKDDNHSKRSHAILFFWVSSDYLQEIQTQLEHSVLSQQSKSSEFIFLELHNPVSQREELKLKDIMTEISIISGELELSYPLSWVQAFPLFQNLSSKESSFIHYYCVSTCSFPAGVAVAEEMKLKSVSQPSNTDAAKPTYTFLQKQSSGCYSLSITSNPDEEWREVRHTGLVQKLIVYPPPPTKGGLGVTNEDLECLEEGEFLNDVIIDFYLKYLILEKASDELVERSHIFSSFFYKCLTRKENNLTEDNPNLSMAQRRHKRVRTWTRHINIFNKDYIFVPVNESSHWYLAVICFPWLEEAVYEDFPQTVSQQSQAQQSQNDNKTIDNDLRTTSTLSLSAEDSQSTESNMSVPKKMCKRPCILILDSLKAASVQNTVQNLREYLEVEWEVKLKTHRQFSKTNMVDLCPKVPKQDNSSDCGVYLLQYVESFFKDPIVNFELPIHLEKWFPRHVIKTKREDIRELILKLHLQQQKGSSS
The class given is functional.

The target in assay [3] is T4, Sentrin-specific protease 8 (Homo sapiens, UniProt Q96LD8).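 Also: luminescence read-out of SENP8 inhibition, dose-response confirmation following an ultra-high-throughput screen.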
T4 sequence (Q96LD8 whole entry): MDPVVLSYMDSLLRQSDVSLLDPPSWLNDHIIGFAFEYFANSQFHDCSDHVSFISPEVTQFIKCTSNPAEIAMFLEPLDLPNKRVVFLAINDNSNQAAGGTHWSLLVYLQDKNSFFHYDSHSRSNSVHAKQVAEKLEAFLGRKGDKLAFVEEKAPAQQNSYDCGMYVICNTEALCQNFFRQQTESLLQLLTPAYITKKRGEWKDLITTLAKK
The assay is classed as functional.

A further assay deals with Streptococcus. Description: GAS UMAA2166 growth inhibition – luminescence, BacTiterGlo, counter-screen for streptokinase expression inhibitor project, dose response (AID 1915).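 Also: potency for reduction of bacterial viability or growth.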 The class given is functional, organism-based. A general note: A counterscreen serves to expose hits that act by an unwanted route or on another target.

Calls of active or inactive are those of the source. A value given as a limit tells only on which side of the number the result lay.

As for `O=C1C(Cl)=C(NCc2cccnc2)C(=O)c2ccccc21`, the AC50 (as a rule, the concentration at which the activity in the assay is half-maximal) was 4.75 µM (active) in assay [1] and 7.26 µM (active) in the assay with INS1.
`Nc1ccc(Br)c2cccnc12`: the IC50 (usually the point on the concentration scale where inhibition reaches its midpoint) at Caspase-3 is 10.4 µM (active); in assay [2], 9.77 µM (active); in assay [3], 10 µM (active).
As for `CN(C)c1ncc(C2=C(Cl)C(=O)C(N3CCCC3)=C(Cl)C2=O)s1`, the EC50 – broadly, the midpoint of the concentration-response curve – in the assay with Streptococcus is 135 µM (active). Moreover, in assay [1], the AC50 is > 380 µM (inactive).
For the compound `Cc1ccc(C(=O)c2c(C)oc3c2C(=O)C(=O)c2ccccc2-3)cc1`, the IC50 at Caspase-3 was 29.1 µM (active); in assay [2], 6.7 µM (active); in assay [3], 7.82 µM (active). For the same compound, in the assay on Streptococcus, the EC50 was 13.6 µM (active). Also, the AC50 in the assay on INS1 is 2.4 µM (active).
In the case of `Cc1cnc(NC(=O)c2sc3ccccc3c2Cl)s1`, the values for the IC50 (at Caspase-3; in assay [2]; in assay [3]) were 6.67 µM (active), 2.6 µM (active) and 2.56 µM (active), respectively.
On to `O=C1C(O)=C/C(=N\c2ccccc2O)c2ccccc21`, for which the results for the 50% inhibitory concentration (IC50) (on Caspase-3; in assay [2]; in assay [3]) were 8.23 µM (active), 5.84 µM (active) and 5.23 µM (active), respectively. Also, in the assay on Streptococcus, the EC50 is listed as > 150 µM (not active). Moreover, the concentration at half-maximal activity (AC50) in assay [1] is 27.4 µM (active); with INS1, 3.26 µM (active).
Turning to `Cc1ccc(Nc2cc(C)nn2-c2nc(C)cc(O)n2)cc1`, in the assay on Streptococcus, the EC50 is 0.065 µM (active). The AC50 in assay [1] is 13.6 µM (active); with INS1 it was 0.6 µM (active).
